Series [1] is described as follows: Cytotoxicity against human L02 cells assessed as inhibition of cell growth incubated for 48 hrs by MTT assay. Format: toxicity, cell-based. (In general: Formazan colour is commonly taken as a measure of viable cells.)
The subject of series [2] is MCF7. The series can be described thus: Induction of DNA damage in human MCF7 cells at 10 uM incubated for 24 hrs by Comet assay. The series is classed as functional, cell-based.
The next series relates to A549. The series can be described thus: Antiproliferative activity against human A549 cells assessed as inhibition of cell growth incubated for 48 hrs by MTT assay. The series is classed as functional, cell-based. The conditions noted are these: A549, 48 h.
Another series relates to MDA-MB-231. The series can be described thus: Antiproliferative activity against human MDA-MB-231 cells assessed as inhibition of cell growth incubated for 48 hrs by MTT assay. The conditions noted are these: MDA-MB-231, 48 h. Format: functional, cell-based.
In the next series the test system is HepG2. The series can be described thus: Antiproliferative activity against human HepG2 cells assessed as inhibition of cell growth incubated for 48 hrs by MTT assay. Format: functional, cell-based. The conditions noted are these: HepG2, 48 h.
Series [3] deals with MCF7. Nature of the series: Induction of DNA double-strand breaks in human MCF7 cells assessed as increase in gamma-H2AX at 10 uM incubated for 48 hrs by DAPI staining based confocal laser scanning microscopy. Format: functional, cell-based.
In the next series the test system is HT-29. The series can be described thus: Antiproliferative activity against human HT-29 cells assessed as inhibition of cell growth incubated for 48 hrs by MTT assay. The series is classed as functional, cell-based. The conditions noted are these: HT-29, 48 h.
The test system of a further series is PC-3. The series can be described thus: Antiproliferative activity against human PC-3 cells assessed as inhibition of cell growth incubated for 48 hrs by MTT assay. Particulars: PC-3, 48 h. Format: functional, cell-based.
In series [4] the test system is MCF7. The series can be described thus: Antiproliferative activity against human MCF7 cells assessed as inhibition of cell growth incubated for 48 hrs by MTT assay. Format: functional, cell-based. The conditions noted are these: MCF7, 48 h.
In the next series the test system is 4T1. Nature of the series: Antitumor activity against mouse 4T1 cells transplanted in BALB/c mouse assessed as tumor growth inhibition rate at 10 mg/kg, ip administered for 14 days relative to control. The series is classed as functional. Also on record: scale not given: the % may be the effect or the level left. The conditions noted are these: time 14 day.
Series [5] relates to MCF7. The series can be described thus: Induction of apoptosis in human MCF7 cells assessed as early apoptotic cells at 25 uM incubated for 24 hrs by Annexin V-FITC/Propidium Iodide staining based flow cytometry analysis (reference value: 2.54 %). The series is classed as functional. (In general: Flow cytometry measures light scatter and fluorescence of single cells or particles in a stream.)

Series [6] concerns MCF7. Nature of the series: Induction of apoptosis in human MCF7 cells assessed as late apoptotic cells at 25 uM incubated for 24 hrs by Annexin V-FITC/Propidium Iodide staining based flow cytometry analysis (reference value: 5.58 %). The series is classed as functional.
The subject of series [7] is MCF7. Nature of the series: Induction of apoptosis in human MCF7 cells assessed as viable cells at 25 uM incubated for 24 hrs by Annexin V-FITC/Propidium Iodide staining based flow cytometry analysis (reference value: 91.8 %). Format: functional. The conditions noted are these: read-out: Activity.
Series [8] has as its system MCF7. The series can be described thus: Induction of apoptosis in human MCF7 cells assessed as necrotic cells at 25 uM incubated for 24 hrs by Annexin V-FITC/Propidium Iodide staining based flow cytometry analysis (reference value: 0.082 %). The series is classed as functional.

Active and inactive are the calls of the source. No cut-off for these calls is given here.

By IC50 is commonly meant the concentration at which inhibition is half-maximal.

As to `CC[C@@]1(O)C(=O)OCc2c1cc1n(c2=O)Cc2cc3ccccc3nc2-1` [CAMPTOTHECIN], the half-inhibitory concentration (IC50) at 48 h in [1] came to 0.59 µM. Besides, the outcome in the series with MCF7 [2] and in the series with MCF7 [3] was Active. Also, the IC50 in the series with A549 amounted to 7.8 µM; in the series with MDA-MB-231 it was 0.62 µM; with HepG2 it was 1.8 µM; in the series with HT-29, 1.87 µM; in the series on PC-3, 6.6 µM; with MCF7 [4], 6.85 µM.
With `CCc1c2c(nc3ccc(OC(=O)N4CCC(N5CCCCC5)CC4)cc13)-c1cc3c(c(=O)n1C2)COC(=O)[C@]3(O)CC` [IRINOTECAN], the Activity with 4T1 amounted to 41.27%.
In the case of `COc1ccc2c(c1)[nH]c1c(C)nccc12` [HARMINE], the Activity stood at 9.74% in the series with MCF7 [5], 7.48% in the series on MCF7 [6] and 0.055% in the series with MCF7 [8]. Also, the half-maximal inhibitory concentration (IC50) at 48 h in series [1] was found to be 9.49 µM. Also, the IC50 came to 13.2 µM with MDA-MB-231; 19.2 µM in the series on HepG2; 12.2 µM in the series on HT-29; 15.6 µM in the series on PC-3; 13.4 µM in the series with MCF7 [4]. Also, the viability at 25 µM in the series on MCF7 [7] turned out to be 82.7%.
`O=C(/C=C/c1cccc(Br)c1)c1nccc2c1[nH]c1ccccc12`: the concentration for half-maximal inhibition (IC50) at 48 h in series [1] turned out to be 14.3 µM. The IC50 in the series on A549 was determined as 11.8 µM; in the series on MDA-MB-231 it was 6.44 µM; in the series with HepG2, 5.89 µM; with HT-29, 7.24 µM; in the series with PC-3, 2.69 µM; with MCF7 [4], 4.99 µM.
As for `O=C(/C=C/c1cccc(I)c1)c1nccc2c1[nH]c1ccccc12`, the half-maximal inhibitory concentration (IC50) at 48 h in series [1] is > 20 µM. The IC50 in the series with A549 was > 20 µM; in the series on MDA-MB-231, 5.17 µM; in the series with HepG2, > 20 µM; in the series with HT-29 it was > 20 µM; in the series with PC-3 it was > 10 µM; in the series on MCF7 [4], 1.6 µM.

(Values after ChEMBL document CHEMBL5518180, “Design, synthesis, and biological evaluation of harmine derivatives as topoisomerase I inhibitors for cancer treatment” (Eur J Med Chem, 2024).)
